Assay results published in patent US20250386822A1, “Microcapsules controlling the diffusion of an active organic compound” (KAPSERA, priority 2022, published 2025).

Tests used:
[1] = Pheromone diffusion duration by SPME pre-concentration and GCMS, closed temperature-controlled chamber (Example 1); type: physicochemical; details: pine processionary pheromone; paraffin oil core, 1% pheromone by weight
From the text: FIG. 1: This graph represents the abundance of the main compound of the non-encapsulated pheromone after preconcentration using the Solid Phase Micro-Extraction (SPME) technique, separation of the pheromone compounds by gas chromatography and detection by mass spectrometry (GCMS) in a closed temperature-controlled chamber. FIG. 2: This graph represents the abundance of the main compound of the encapsulated pheromone after preconcentration using the Solid Phase Micro-Extraction (SPME) technique, separation of the pheromone compounds by gas chromatography and detection by mass spectrometry (GCMS) in a closed temperature-controlled chamber. An analytical method was developed to detect the pheromone's main compound. The low quantities of analytes led to the choice of a pre-concentration method known as Solid Phase Micro-Extraction (SPME) and Gas Chromatography-Mass Spectrometry (GCMS).

[2] = Closed system: study of thermodynamic equilibrium, SPME-GC/MS in sealed 20 mL flasks (Example 2); type: physicochemical; details: closed 20 mL flask; European grapevine moth pheromone
Experimental: In order to establish the diffusion profiles of the samples at short times and to obtain initial information on any differences between the capsules, a study was carried out in a closed system. The experiment consists of introducing the samples into 20 mL hermetically sealed flasks and following the evolution of the quantity extracted by the SPME fibre over time, until equilibrium is reached. Measurements were initially taken over short periods (one measurement every 45 minutes, corresponding to the analysis time) and then, once the maximum concentration had been reached, measurements were taken at longer intervals to ensure that equilibrium had been reached (one measurement every 2.5 hours). These tests were carried out using the European grapevine moth pheromone, (E)-7-(Z)-9-dodecadienyl acetate (C14H24O2).

Row | SMILES | duration of the pheromone's diffusion [1] | time until equilibrium is reached [2] [h]
1 | CC/C=C\C#CCCCCCCCCCCOC(C)=O [Example 1 non-encapsulated pheromone, Z-13-hexadecen-11-yn-1-yl acetate] | less than 10 days | –
2 | CC/C=C\C=C\CCCCCCOC(C)=O [Example 2 non-encapsulated pheromone, (E)-7-(Z)-9-dodecadienyl acetate] | – | > 50
